Consider 7 molecules from patent publication US10363247B2, “(S,E)-3-(6-aminopyridin-3-yl)-N-((5-(4-(3-fluoro-3-methylpyrrolidine-1-carbonyl)phenyl-7-(4-fluorophenyl)benzofuran-2-yl)methyl)acrylamide for the treatment of cancer” (Karyopharm Therapeutics Inc., priority 2015, dated 2019).

As usually defined, the IC50 is the point on the concentration scale where inhibition reaches its midpoint.

The subject of series [1] is Molt-4 T-ALL cancer xenograft; NCI-H520 lung cancer xenograft. As to the kind of experiment: Xenograft models in mice (Molt-4 T-ALL in SCID mice; NCI-H520 lung cancer in nu/nu mice). The series is classed as in vivo, mouse. To be noted: Molt-4 xenograft 10 and 20 mg/kg PO BID; H520 xenograft 100 mg/kg PO BID. The method, then: In this study, the impact of the compound of Example 2 on tumor growth was tested using the Molt-4 T-ALL cancer xenograft model in SCID mice. MOLT 4 (CRL-1582) acute lymphoblastic leukemia cells were obtained from ATCC. These cells were grown in RPMI-1640 medium supplemented with 10% fetal bovine serum, 1% penicillin and streptomycin. Cells were sub-cultured by transferring floating cells to a new flask and trypsinizing adherent cells before subculturing at a ratio of 1:4. Molt-4 cells were harvested by centrifugation and counted using a hemocytometer. Cells were resuspended in PBS at a 5×10^7 cells per mL. Cells were placed on ice and mixed with an equal volume of Matrigel (BD Biosciences CB-40234). This mixture was kept on ice and injected into the left flank of mice in a volume of […], equivalent to 5×10^6 cells per mouse. Twenty-four (24) CB-17 SCID mice were inoculated subcutaneously in the left flank Molt-4 cells. Treatment was initiated when the tumors reached a mean volume of ˜135 mm^3. […] Animal weights and conditions were recorded daily, and tumors were measured on Mondays, Wednesdays and Fridays.
In this study, the impact of the compound of Example 2 on tumor growth was tested using the NCI-H520 lung cancer xenograft model in nu/nu mice. […] Animal weights and conditions were recorded daily, and tumors were measured on Mondays, Wednesdays and Fridays.

Another series in a line: Plasma protein binding. It counts as in vitro ADME. To be noted: human plasma.
The subject of the next series is Z138 cells. As to the kind of experiment: MTT cell proliferation assay, Z138 cells. It counts as cell-based, human. To be noted: approximately 64-72 hours incubation. The method, then: (§1) The MTT cell proliferation assay was used to study the cytotoxic properties of the compounds. The assay was performed according to the method described by Roche Molecular Biochemicals, with minor modifications. The assay is based on the cleavage of the tetrazolium salt, MTT, in the presence of an electron-coupling reagent. The water-insoluble formazan salt produced must be solubilized in an additional step. Cells grown in a 96-well tissue culture plate were incubated with the MTT solution for approximately 4 hours. After this incubation period, a water-insoluble formazan dye formed. After solubilization, the formazan dye was quantitated using a scanning multi-well spectrophotometer (ELISA reader). […] The cells were seeded at 5,000-10,000 cells in each well of 96-well plate in 100 μL of fresh culture medium and were allowed to attach overnight. The stock solutions of the compounds were diluted in 100 μL cell culture medium to obtain eight concentrations of each test compound, ranging from 1 nM to 30 μM. […] All optical densities were measured at 490 nm using a Vmax Kinetic Microplate Reader (Molecular Devices). In most cases, the assay was performed in duplicate and the results were presented as a mean percent inhibition to the negative control±SE. The following formula was used to calculate the percent of inhibition: Inhibition (%)=(1-(ODo/OD))×100.
(§2) The compounds were tested against MS751, Z138 and 3T3 cells. The MS751 cell line is derived from a metastasis to lymph node of human cervix from a patient diagnosed with squameous cell carcinoma of the cervix. The Z138 cell line is a mature B-cell acute lymphoblastic leukemia cell line derived from a patient with chronic lymphocytic leukemia. 3T3 cells are standard fibroblast cells; they were originally isolated from Swiss mouse embryo tissue.
On the technique in general: Formazan colour is commonly taken as a measure of viable cells.

The subject of a further series is MS751 cells. Kind of series: MTT cell proliferation assay, MS751 cells. It counts as cell-based, human. The note with it: approximately 64-72 hours incubation. The method, then:
as §1, §2

For the next series, the system named is 3T3 cells. As to the kind of experiment: MTT cell proliferation assay, 3T3 cells. It counts as cell-based, mouse. Here is the method: as §1, §2
The mark [2] stands for this setting: Homo sapiens, Z-138, Z138 cells.
[3] abbreviates: Homo sapiens, MS751, MS751 cells.
Where [4] appears, read: Mus musculus, NIH3T3, approximately 64-72 hours incubation.
[5] abbreviates: approximately 64-72 hours incubation.

Where only a bound is given, the exact number is not on record here.

Regarding `C[C@]1(F)CCN(C(=O)c2ccc(-c3cc(-c4ccc(F)cc4)c4oc(CNC(=O)/C=C/c5ccc(N)nc5)cc4c3)cc2)C1` [Example 2, (S,E)-3-(6-aminopyridin-3-yl)-N-((5-(4-(3-fluoro-3-methylpyrrolidine-1-carbonyl)phenyl)-7-(4-fluorophenyl)benzofuran-2-yl)methyl)acrylamide], the “efficacy in vivo (tumor growth)” value in series [1] is “demonstrated efficacy in vivo”. Moreover, the “Fraction of Bound” value in the series “Plasma protein binding” amounted to 95.2%. Further, the 50% inhibitory concentration (IC50) in the series on Z138 cells (setting [2]) was below 0.005 µM; in the series with MS751 cells (setting [3]), 0.008 µM; with 3T3 cells (setting [4]) it was 1.18 µM.

For `C[C@@]1(F)CCN(C(=O)c2ccc(-c3cc(-c4ccc(F)cc4)c4oc(CNC(=O)/C=C/c5ccc(N)nc5)cc4c3)cc2)C1` [Example 3, (R,E)-3-(6-aminopyridin-3-yl)-N-((5-(4-(3-fluoro-3-methylpyrrolidine-1-carbonyl)phenyl)-7-(4-fluorophenyl)benzofuran-2-yl)methyl)acrylamide], the half-maximal inhibitory concentration (IC50) in the series on Z138 cells (setting [2]) was 0.02 µM; with MS751 cells (setting [3]) it was 0.09 µM; with 3T3 cells (setting [4]) it was above 10 µM.

Take `Nc1ccc(/C=C/C(=O)NCc2cc3cc(-c4ccc(C(=O)N5CCC(F)(F)CC5)cc4)cc(-c4ccc(F)cc4)c3o2)cn1` [Example X-1, (E)-3-(6-aminopyridin-3-yl)-N-((5-(4-(4,4-difluoropiperidine-1-carbonyl)phenyl)-7-(4-fluorophenyl)benzofuran-2-yl)methyl)acrylamide]: the “Fraction of Bound” value in the series “Plasma protein binding” is recorded as 100%. Further, the results for the IC50 in the series with Z138 cells (setting [2]), in the series on MS751 cells (setting [3]) and in the series with 3T3 cells (setting [4]) were 0.018 µM, 0.05 µM and 3.6 µM, respectively.

Regarding `CC1(F)CCN(C(=O)c2ccc(-c3cc(C(F)(F)F)c4oc(CNC(=O)/C=C/c5ccc(N)nc5)cc4c3)cc2)C1` (single isomer, unassigned) [Example X-2, (E)-3-(6-aminopyridin-3-yl)-N-((5-(4-(3-fluoro-3-methylpyrrolidine-1-carbonyl)phenyl)-7-(trifluoromethyl)benzofuran-2-yl)methyl)acrylamide], the half-maximal inhibitory concentration (IC50) is 0.24 µM in the series with Z138 cells (Z138 cells), 0.52 µM in the series with MS751 cells (MS751 cells) and above 10 µM in the series with 3T3 cells (setting [5]).

Consider `CC1(F)CCN(C(=O)c2ccc(-c3cc(-c4ccc(F)cc4)c4oc(CNC(=O)/C=C/c5ccc(N)nc5)cc4c3)cc2)C1` (racemic) [Example 1, (±)-(E)-3-(6-aminopyridin-3-yl)-N-((5-(4-(3-fluoro-3-methylpyrrolidine-1-carbonyl)phenyl)-7-(4-fluorophenyl)benzofuran-2-yl)methyl)acrylamide], for which the concentration for half-maximal inhibition (IC50) in the series with Z138 cells (setting [2]) is below 0.005 µM; in the series with MS751 cells (setting [3]), 0.03 µM; in the series on 3T3 cells (setting [4]), 1.26 µM.

On to `CC1(F)CCN(C(=O)c2ccc(-c3cc(C(F)(F)F)c4oc(CNC(=O)/C=C/c5ccc(N)nc5)cc4c3)cc2)C1` (single isomer, unassigned) [Example X-3, (E)-3-(6-aminopyridin-3-yl)-N-((5-(4-(3-fluoro-3-methylpyrrolidine-1-carbonyl)phenyl)-7-(trifluoromethyl)benzofuran-2-yl)methyl)acrylamide], for which the IC50 in the series on Z138 cells (Z138 cells) was 0.4 µM; in the series with MS751 cells (MS751 cells) it was 0.4 µM; with 3T3 cells (setting [4]) it was above 10 µM.

For the molecule `CC1(F)CCN(C(=O)c2ccc(-c3cc(C(F)(F)F)c4oc(CNC(=O)/C=C/c5ccc(N)nc5)cc4c3)cc2)C1` (single isomer, unassigned) [Example X-4, (E)-3-(6-aminopyridin-3-yl)-N-((5-(4-(3-fluoro-3-methylpyrrolidine-1-carbonyl)phenyl)-7-(trifluoromethyl)benzofuran-2-yl)methyl)acrylamide], the results for the IC50 in the series on Z138 cells (Z138 cells), with MS751 cells (MS751 cells) and with 3T3 cells (setting [5]) were 1.5 µM, 2.1 µM and above 10 µM, respectively.
